In PubChem BioAssay AID1259407 (Chemical Carcinogenesis Research Information System (CCRIS), 2018):
Activity calls are given as the source filed them. How the calls were made is not given here.

Tested on: CCRIS mutagenicity, Ames/micronucleus/aberration tests
Assay: CCRIS mutagenicity studies
[1] = Test System: AMES SALMONELLA TYPHIMURIUM, Strain/Indicator: TA98, Metabolic Activation: NONE, Method: STANDARD PLATE
[2] = Test System: AMES SALMONELLA TYPHIMURIUM, Strain/Indicator: TA98, Metabolic Activation: RAT, LIVER, S-9, AROCLOR 1254, Method: STANDARD PLATE
[3] = Test System: AMES SALMONELLA TYPHIMURIUM, Strain/Indicator: TA100, Metabolic Activation: NONE, Method: STANDARD PLATE
[4] = Test System: AMES SALMONELLA TYPHIMURIUM, Strain/Indicator: TA100, Metabolic Activation: RAT, LIVER, S-9, AROCLOR 1254, Method: STANDARD PLATE

For `O=[N+]([O-])C1=Cc2cccc3c2c1cc1ccc2ccccc2c13`, the mutagenic call [1] was “active; positive”, the mutagenic call [2] was “inactive; negative” and the mutagenic call [3] was “inactive; negative”. The mutagenic call [4] was “active; positive”, the mutagenic call (Test System: AMES SALMONELLA TYPHIMURIUM, Strain/Indicator: TA1535, Metabolic Activation: NONE, Method: STANDARD PLATE) was “inactive; negative” and the mutagenic call (Test System: AMES SALMONELLA TYPHIMURIUM, Strain/Indicator: TA1535, Metabolic Activation: RAT, LIVER, S-9, AROCLOR 1254, Method: STANDARD PLATE) was “inactive; negative”. For the same compound, the mutagenic call (Test System: AMES SALMONELLA TYPHIMURIUM, Strain/Indicator: TA1537, Metabolic Activation: NONE, Method: STANDARD PLATE) was “active; positive”, the mutagenic call (Test System: AMES SALMONELLA TYPHIMURIUM, Strain/Indicator: TA1537, Metabolic Activation: RAT, LIVER, S-9, AROCLOR 1254, Method: STANDARD PLATE) was “active; positive” and the mutagenic call (Test System: AMES SALMONELLA TYPHIMURIUM, Strain/Indicator: TA1538, Metabolic Activation: NONE, Method: STANDARD PLATE) was “active; positive”. For the same compound, the mutagenic call (Test System: AMES SALMONELLA TYPHIMURIUM, Strain/Indicator: TA1538, Metabolic Activation: RAT, LIVER, S-9, AROCLOR 1254, Method: STANDARD PLATE) was “active; positive”.

For `COC(=O)c1cc2c([nH]c3ccccc32)c(-c2ccc3c(n2)C(=O)C=CC3=O)n1`, the mutagenic call [3] was “active; positive” and the mutagenic call (Test System: AMES SALMONELLA TYPHIMURIUM, Strain/Indicator: TA100, Metabolic Activation: RAT, LIVER, S-9, PCB, Method: STANDARD PLATE) was “active; positive”.

In the case of `C=C1C[C@@]23CC[C@H]4[C@@](C)(CCC[C@@]4(C)C(=O)O[C@@H]4O[C@H](CO)[C@@H](O)[C@H](O)[C@H]4O)[C@@H]2CC[C@]1(O[C@@H]1O[C@H](CO)[C@@H](O)[C@H](O)[C@H]1O[C@@H]1O[C@@H](C)[C@H](O)[C@@H](O)[C@H]1O)C3`, the mutagenic call (Test System: AMES SALMONELLA TYPHIMURIUM, Strain/Indicator: TM677, Metabolic Activation: RAT, LIVER, S-9, AROCLOR 1254, Method: PREINCUBATION) is reported as “inactive; negative”.

With `COc1nsc2cc(OCC3CO3)ccc12` (configuration not stated) the mutagenic call [3] was “active; positive”.

`O=[N+]([O-])c1ccc(Cl)c(Cl)c1` was tested, and the mutagenic call (End Point: IN VITRO CHROMOSOMAL ABERRATIONS, Test System: HUMAN PERIPHERAL LYMPHOCYTES, Metabolic Activation: NONE) was “inactive; negative”, the mutagenic call (End Point: In vitro chromosomal aberrations, Test System: Chinese hamster lung (CHL/IU) cells, Metabolic Activation: Rat, Liver, S9, Phenobarbital and 5,6-benzoflavone) was “active; positive (structural changes). precipitation observed in culture medium at 0.16” and the mutagenic call (Test System: AMES SALMONELLA TYPHIMURIUM, Strain/Indicator: TA98, Metabolic Activation: NONE, Method: PREINCUBATION) was “inactive; negative”. The mutagenic call [1] was “inactive; negative”, the mutagenic call (Test System: AMES SALMONELLA TYPHIMURIUM, Strain/Indicator: TA98, Metabolic Activation: RAT LIVER S-9, AROCLOR 1254 (10%), Method: STANDARD PLATE) was “inactive; negative” and the mutagenic call (Test System: AMES SALMONELLA TYPHIMURIUM, Strain/Indicator: TA98, Metabolic Activation: RAT, LIVER, S-9, KANECHLOR 500, Method: PREINCUBATION) was “inactive; negative”. The mutagenic call (Test System: AMES SALMONELLA TYPHIMURIUM, Strain/Indicator: TA100, Metabolic Activation: NONE, Method: PREINCUBATION) was “active; positive”, the mutagenic call [3] was “inactive; negative” and the mutagenic call (Test System: AMES SALMONELLA TYPHIMURIUM, Strain/Indicator: TA100, Metabolic Activation: RAT, LIVER, S-9, KANECHLOR 500, Method: PREINCUBATION) was “active; positive”. The mutagenic call (Test System: Ames Salmonella typhimurium, Strain/Indicator: TA98, Metabolic Activation: None, Method: Preincubaton) was “inactive; negative”, the mutagenic call (Test System: Ames Salmonella typhimurium, Strain/Indicator: TA98, Metabolic Activation: Rat, Liver, S9, Sodium phenobarbital and 5,6-benzoflavone (10%), Method: Preincubaton) was “inactive; negative” and the mutagenic call (Test System: Ames Salmonella typhimurium, Strain/Indicator: TA100, Metabolic Activation: None, Method: Preincubaton) was “active; positive”. For the same compound, the mutagenic call (Test System: Ames Salmonella typhimurium, Strain/Indicator: TA100, Metabolic Activation: Rat, Liver, S9, Sodium phenobarbital and 5,6-benzoflavone (10%), Method: Preincubaton) was “active; positive”, the mutagenic call (Test System: Ames Salmonella typhimurium, Strain/Indicator: TA1535, Metabolic Activation: None, Method: Preincubaton) was “inactive; negative” and the mutagenic call (Test System: Ames Salmonella typhimurium, Strain/Indicator: TA1535, Metabolic Activation: Rat, Liver, S9, Sodium phenobarbital and 5,6-benzoflavone (10%), Method: Preincubaton) was “inactive; negative”. For the same compound, the mutagenic call (Test System: Ames Salmonella typhimurium, Strain/Indicator: TA1537, Metabolic Activation: None, Method: Preincubaton) was “inactive; negative”, the mutagenic call (Test System: Ames Salmonella typhimurium, Strain/Indicator: TA1537, Metabolic Activation: Rat, Liver, S9, Sodium phenobarbital and 5,6-benzoflavone (10%), Method: Preincubaton) was “inactive; negative” and the mutagenic call (Test System: E. coli, Strain/Indicator: WP2uvrA/pKM101, Metabolic Activation: None, Method: Preincubaton) was “inactive; negative”. For the same compound, the mutagenic call (Test System: E. coli, Strain/Indicator: WP2uvrA/pKM101, Metabolic Activation: Rat, Liver, S9, Sodium phenobarbital and 5,6-benzoflavone (10%), Method: Preincubaton) was “inactive; negative”.

With `CN1CC[C@H](c2c(O)cc(O)c3c(=O)cc(-c4ccccc4Cl)oc23)[C@H](O)C1` the mutagenic call (Test System: Mouse lymphoma, Strain/Indicator: L5178Y (tk+/tk-), Metabolic Activation: None, Method: Suspension/plate) was “inactive; negative” and the mutagenic call (Test System: Mouse lymphoma, Strain/Indicator: L5178Y (tk+/tk-), Metabolic Activation: Rat, Liver, S-9, Aroclor 1254, Method: Suspension/plate) was “active; inconclusive (previous evaluation positive)”.

With `COC1=CC(=O)c2c(nc(C)c3c2[nH]c2ccccc23)C1=O` the mutagenic call (Test System: AMES SALMONELLA TYPHIMURIUM, Strain/Indicator: TA97, Metabolic Activation: NONE, Method: STANDARD PLATE) was “active; positive”, the mutagenic call (Test System: AMES SALMONELLA TYPHIMURIUM, Strain/Indicator: TA97, Metabolic Activation: RAT, LIVER, S-9, AROCLOR 1254, Method: STANDARD PLATE) was “active; positive” and the mutagenic call (Test System: AMES SALMONELLA TYPHIMURIUM, Strain/Indicator: TA97A, Metabolic Activation: NONE, Method: STANDARD PLATE) was “active; positive”. The mutagenic call (Test System: AMES SALMONELLA TYPHIMURIUM, Strain/Indicator: TA97A, Metabolic Activation: RAT LIVER S-9, AROCLOR 1254, Method: STANDARD PLATE) was “active; positive”, the mutagenic call [1] was “active; positive” and the mutagenic call (Test System: AMES SALMONELLA TYPHIMURIUM, Strain/Indicator: TA98, Metabolic Activation: RAT LIVER S-9, AROCLOR 1254, Method: STANDARD PLATE) was “active; positive”. For the same compound, the mutagenic call [2] was “active; positive”, the mutagenic call [3] was “active; positive” and the mutagenic call (Test System: AMES SALMONELLA TYPHIMURIUM, Strain/Indicator: TA100, Metabolic Activation: RAT LIVER S-9, AROCLOR 1254, Method: STANDARD PLATE) was “active; positive”. For the same compound, the mutagenic call [4] was “active; positive”, the mutagenic call (Test System: AMES SALMONELLA TYPHIMURIUM, Strain/Indicator: TA102, Metabolic Activation: RAT LIVER S-9, AROCLOR 1254, Method: STANDARD PLATE) was “inactive; negative” and the mutagenic call (Test System: AMES SALMONELLA TYPHIMURIUM, Strain/Indicator: TA102, Metabolic Activation: RAT, LIVER, S-9, AROCLOR 1254, Method: STANDARD PLATE) was “inactive; negative”.
